Results reported in patent publication US12660819B2, “Herbicidal derivatives” (SYNGENTA CROP PROTECTION AG, priority 2020, dated 2026).

Experiments:
Format in all cases: in vivo
[1] = system: Amaranthus retoflexus (AMARE); experiment: Pre-emergence Test (glasshouse, percentage damage to the plant); settings: 1000 g/ha unless otherwise stated, five-point scale
Solanum nigrum (SOLNI) [2] = experiment: as above; settings: 1000 g/ha unless otherwise stated, five-point scale
Setaria faberi (SETFA) [3] = experiment: as above; settings: 1000 g/ha unless otherwise stated, five-point scale
[4] = system: Echinochloa crus-galli (ECHCG); experiment: Post-emergence Test (glasshouse, percentage damage to the plant); settings: post-emergence spray, 1000 g/ha unless otherwise stated, evaluated after 13 days
How it was run: (§1)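 Seeds are sown in standard soil under controlled glasshouse conditions. The pots are then sprayed at 1000 g/ha, unless otherwise stated, with compound in acetone/water (50:50) containing 0.5% Tween 20. After 13 days further growth, percentage plant damage is scored from 1 (0-20%) to 5 (81-100%).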

[5] = system: Amaranthus retoflexus (AMARE); experiment: as above; settings: post-emergence spray, 1000 g/ha unless otherwise stated, evaluated after 13 days
How it was run: as §1

Lolium perenne (LOLPE) [6] = experiment: as above; settings: post-emergence spray, 1000 g/ha unless otherwise stated, evaluated after 13 days
How it was run: as §1

Solanum nigrum (SOLNI) [7] = experiment: as above; settings: post-emergence spray, 1000 g/ha unless otherwise stated, evaluated after 13 days
How it was run: as §1

Setaria faberi (SETFA) [8] = experiment: as above; settings: post-emergence spray, 1000 g/ha unless otherwise stated, evaluated after 13 days
How it was run: (§2)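 Seeds sown in standard soil in a glasshouse (24/16 °C day/night, 14 h light, 65% humidity), then sprayed with an aqueous solution of the compound formulated in acetone/water 50:50 with 0.5% Tween 20 at 1000 g/ha unless otherwise stated. Percentage damage was scored after 13 days on a five-point scale (5=81-100%; 1=0-20%).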

[9] = system: Ipomoea hederacea (IPOHE); experiment: as above; settings: post-emergence spray, 1000 g/ha unless otherwise stated, evaluated after 13 days
How it was run: as §2

Lolium perenne (LOLPE) [10] = experiment: Pre-emergence Test (glasshouse, percentage damage to the plant); settings: 1000 g/ha unless otherwise stated, five-point scale
[11] = system: Echinochloa crus-galli (ECHCG); experiment: as above; settings: 1000 g/ha unless otherwise stated, five-point scale
[12] = system: Ipomoea hederacea (IPOHE); experiment: as above; settings: 1000 g/ha unless otherwise stated, five-point scale

| Compound | percentage damage to the plant, AMARE [1] | percentage damage to the plant, SOLNI (Solanum nigrum (SOLNI) [2]) | percentage damage to the plant, SETFA (Setaria faberi (SETFA) [3]) | Post-emergence Test ECHCG, percentage damage to the plant (five-point scale) [4] | Post-emergence Test AMARE, percentage damage to the plant (five-point scale) [5] | Post-emergence Test LOLPE, percentage damage to the plant (five-point scale) (Lolium perenne (LOLPE) [6]) | Post-emergence Test SOLNI, percentage damage to the plant (five-point scale) (Solanum nigrum (SOLNI) [7]) | Post-emergence Test SETFA, percentage damage to the plant (five-point scale) (Setaria faberi (SETFA) [8]) | Post-emergence Test IPOHE, percentage damage to the plant (five-point scale) [9] | percentage damage to the plant, LOLPE (Lolium perenne (LOLPE) [10]) | percentage damage to the plant, ECHCG [11] | percentage damage to the plant, IPOHE [12] |
| --- | --- | --- | --- | --- | --- | --- | --- | --- | --- | --- | --- | --- |
| CCn1c(C)c(-c2ccnnc2)c(=O)c(C(=O)O)c1-c1ccc(Cl)c(Cl)c1 [Compound 35, 2-(3,4-dichlorophenyl)-1-ethyl-6-methyl-4-oxo-5-pyridazin-4-yl-pyridine-3-carboxylic acid;2,2,2-trifluoroacetic acid, 2,2,2-trifluoroacetate] | 1 (1=0-20%) | 1 (1=0-20%) | 1 (1=0-20%) | 2 (2=21-40%) | 1 (1=0-20%) | 1 (1=0-20%) | 1 (1=0-20%) | 2 (2=21-40%) | 1 (1=0-20%) | 1 (1=0-20%) | 1 (1=0-20%) | 1 (1=0-20%) |
| CCn1c(C)c(-c2ccc([N+](=O)[O-])cc2)c(=O)c(C(=O)O)c1-c1ccc(Cl)c(Cl)c1 [Compound 36, 2-(3,4-dichlorophenyl)-1-ethyl-6-methyl-5-(4-nitrophenyl)-4-oxo-pyridine-3-carboxylic acid] | 1 (1=0-20%) | 3 (3=41-60%) | 5 (5=81-100%) | 5 (5=81-100%) | 1 (1=0-20%) | 1 (1=0-20%) | 2 (2=21-40%) | 4 (4=61-80%) | 1 (1=0-20%) | 1 (1=0-20%) | 5 (5=81-100%) | 1 (1=0-20%) |
| CCn1c(C)c(-c2csc(Cl)c2)c(=O)c(C(=O)O)c1-c1ccc(Cl)c(Cl)c1 [Compound 37, 5-(5-chloro-3-thienyl)-2-(3,4-dichlorophenyl)-1-ethyl-6-methyl-4-oxo-pyridine-3-carboxylic acid] | 1 (1=0-20%) | 1 (1=0-20%) | 1 (1=0-20%) | 1 (1=0-20%) | 1 (1=0-20%) | 1 (1=0-20%) | 4 (4=61-80%) | 1 (1=0-20%) | 3 (3=41-60%) | 1 (1=0-20%) | 1 (1=0-20%) | 1 (1=0-20%) |
| CCn1c(C)c(-c2ncco2)c(=O)c(C(=O)OC)c1-c1ccc(Cl)c(Cl)c1 [Compound 38, methyl 2-(3,4-dichlorophenyl)-1-ethyl-6-methyl-5-oxazol-2-yl-4-oxo-pyridine-3-carboxylate] | 1 (1=0-20%) | 1 (1=0-20%) | 1 (1=0-20%) | 1 (1=0-20%) | 1 (1=0-20%) | 1 (1=0-20%) | 1 (1=0-20%) | 1 (1=0-20%) | 1 (1=0-20%) | 1 (1=0-20%) | 1 (1=0-20%) | 1 (1=0-20%) |
| CCn1c(C)c(-c2cncn2C)c(=O)c(C(=O)OC)c1-c1ccc(Cl)c(Cl)c1 [Compound 39, methyl 2-(3,4-dichlorophenyl)-1-ethyl-6-methyl-5-(3-methylimidazol-4-yl)-4-oxo-pyridine-3-carboxylate] | 1 (1=0-20%) | 1 (1=0-20%) | 1 (1=0-20%) | 1 (1=0-20%) | 1 (1=0-20%) | 1 (1=0-20%) | 1 (1=0-20%) | 1 (1=0-20%) | 1 (1=0-20%) | 1 (1=0-20%) | 1 (1=0-20%) | 1 (1=0-20%) |
| CCn1c(C)c(-c2cncn2C)c(=O)c(C(=O)O)c1-c1ccc(Cl)c(Cl)c1 [Compound 40, 2-(3,4-dichlorophenyl)-1-ethyl-6-methyl-5-(3-methylimidazol-4-yl)-4-oxo-pyridine-3-carboxylic acid] | 1 (1=0-20%) | 1 (1=0-20%) | 1 (1=0-20%) | 1 (1=0-20%) | 1 (1=0-20%) | 1 (1=0-20%) | 2 (2=21-40%) | 1 (1=0-20%) | 1 (1=0-20%) | 1 (1=0-20%) | 1 (1=0-20%) | 1 (1=0-20%) |
| CCn1c(C)c(-c2ccc(OC)nc2)c(=O)c(C(=O)O)c1-c1ccc(Cl)c(Cl)c1 [Compound 126, 2-(3,4-dichlorophenyl)-1-ethyl-5-(6-methoxy-3-pyridyl)-6-methyl-4-oxo-pyridine-3-carboxylic acid] | 5 (5=81-100%) | 4 (4=61-80%) | 4 (4=61-80%) | 4 (4=61-80%) | 5 (5=81-100%) | 2 (2=21-40%) | 5 (5=81-100%) | 5 (5=81-100%) | 4 (4=61-80%) | 0 | 2 (2=21-40%) | 3 (3=41-60%) |
